Source: US20190269129A1, “COMPOSITION CONTAINING 1,2-DIBROMO-2,4-DICYANOBUTANE (DBDCB) AND ZINC PYRITHIONE (ZPT)” (LANXESS Deutschland GmbH, priority 2014, published 2019)

How the values were obtained:
Type in all cases: cell-based
Conditions in all cases: 0.05 wt % biocide added
[1] = test system: Bacteria: Escherichia coli, Pseudomonas aeruginosa and Staphylococcus aureus; experiment: Microbiological stress test, preservation of a polymer emulsion: bacteria
From the text: (§1) The preserving effect of an inventive composition comprising DBDCB and ZPT in a polymer emulsion (acrylate-based, pH=6.5) was investigated using a microbiological stress test. The microbiological stress test examines the susceptibility of water-based systems to microbial attack and the effect of preservatives. To this end, the preservatives are incorporated in defined concentrations into the water-based systems. […] Having knowledge of the microorganism populations prevalent in polymer emulsions and dispersions the experiment employed a mixture of the following microorganism types for testing: Bacteria: Escherichia coli, Pseudomonas aeruginosa and Staphylococcus aureus.

[2] = test system: Molds: Acremonium strictum, Aspergillus niger and Geotrichum candidu; experiment: Microbiological stress test, preservation of a polymer emulsion: molds
From the text: as §1, with “Molds: Acremonium strictum, Aspergillus niger” for “Bacteria: Escherichia coli, Pseudomonas aeruginosa”, “Geotrichum candidu.” for “Staphylococcus aureus.”

[3] = test system: Yeasts: Candida albicans and Rhodotorula rubra; experiment: Microbiological stress test, preservation of a polymer emulsion: yeasts
From the text: as §1, with “Yeasts: Candida albicans” for “Bacteria: Escherichia coli, Pseudomonas aeruginosa”, “Rhodotorula rubra.” for “Staphylococcus aureus.”

[4] = week 1, polymer emulsion pH 6.5
[5] = week 2, polymer emulsion pH 6.5
[6] = week 3, polymer emulsion pH 6.5
[7] = week 4, polymer emulsion pH 6.5
[8] = week 5, polymer emulsion pH 6.5
[9] = week 6, polymer emulsion pH 6.5

[O-][n+]1ccccc1[S-].[O-][n+]1ccccc1[S-].[Zn+2] [ZPT, zinc bis[2-pyridinethiolate]-N,N-dioxide]
Activity of the biocides determined 1 week after germ addition, week 1 [1, 4]: 0 (no reduction or only a minor reduction of the microbe level is observed (residual level of at least 10^5 bacteria/10^4 mold/yeast cells per g) (score of 0=poor)) | Activity of the biocides determined 1 week after germ addition, week 2 [1, 5]: 0 (no reduction or only a minor reduction of the microbe level is observed (residual level of at least 10^5 bacteria/10^4 mold/yeast cells per g) (score of 0=poor)) | Activity of the biocides determined 1 week after germ addition, week 3 [1, 6]: 0 (no reduction or only a minor reduction of the microbe level is observed (residual level of at least 10^5 bacteria/10^4 mold/yeast cells per g) (score of 0=poor)) | Activity of the biocides determined 1 week after germ addition, week 4 [1, 7]: 0 (no reduction or only a minor reduction of the microbe level is observed (residual level of at least 10^5 bacteria/10^4 mold/yeast cells per g) (score of 0=poor)) | Activity of the biocides determined 1 week after germ addition, week 5 [1, 8]: 0 (no reduction or only a minor reduction of the microbe level is observed (residual level of at least 10^5 bacteria/10^4 mold/yeast cells per g) (score of 0=poor)) | Activity of the biocides determined 1 week after germ addition, week 6 [1, 9]: 0 (no reduction or only a minor reduction of the microbe level is observed (residual level of at least 10^5 bacteria/10^4 mold/yeast cells per g) (score of 0=poor)) | Activity of the biocides determined 1 week after germ addition, week 1 [2, 4]: 2 (markedly reduced microbe level is observed (10^3−10^1 bacteria/10^2−10^1 mold/yeast cells per g) (score of 2=good)) | Activity of the biocides determined 1 week after germ addition, week 2 [2, 5]: 2 (markedly reduced microbe level is observed (10^3−10^1 bacteria/10^2−10^1 mold/yeast cells per g) (score of 2=good)) | Activity of the biocides determined 1 week after germ addition, week 3 [2, 6]: 2 (markedly reduced microbe level is observed (10^3−10^1 bacteria/10^2−10^1 mold/yeast cells per g) (score of 2=good)) | Activity of the biocides determined 1 week after germ addition, week 4 [2, 7]: 2 (markedly reduced microbe level is observed (10^3−10^1 bacteria/10^2−10^1 mold/yeast cells per g) (score of 2=good)) | Activity of the biocides determined 1 week after germ addition, week 5 [2, 8]: 2 (markedly reduced microbe level is observed (10^3−10^1 bacteria/10^2−10^1 mold/yeast cells per g) (score of 2=good)) | Activity of the biocides determined 1 week after germ addition, week 6 [2, 9]: 2 (markedly reduced microbe level is observed (10^3−10^1 bacteria/10^2−10^1 mold/yeast cells per g) (score of 2=good)) | Activity of the biocides determined 1 week after germ addition, week 1 [3, 4]: 2 (markedly reduced microbe level is observed (10^3−10^1 bacteria/10^2−10^1 mold/yeast cells per g) (score of 2=good)) | Activity of the biocides determined 1 week after germ addition, week 2 [3, 5]: 2 (markedly reduced microbe level is observed (10^3−10^1 bacteria/10^2−10^1 mold/yeast cells per g) (score of 2=good)) | Activity of the biocides determined 1 week after germ addition, week 3 [3, 6]: 2 (markedly reduced microbe level is observed (10^3−10^1 bacteria/10^2−10^1 mold/yeast cells per g) (score of 2=good)) | Activity of the biocides determined 1 week after germ addition, week 4 [3, 7]: 2 (markedly reduced microbe level is observed (10^3−10^1 bacteria/10^2−10^1 mold/yeast cells per g) (score of 2=good)) | Activity of the biocides determined 1 week after germ addition, week 5 [3, 8]: 2 (markedly reduced microbe level is observed (10^3−10^1 bacteria/10^2−10^1 mold/yeast cells per g) (score of 2=good)) | Activity of the biocides determined 1 week after germ addition, week 6 [3, 9]: 2 (markedly reduced microbe level is observed (10^3−10^1 bacteria/10^2−10^1 mold/yeast cells per g) (score of 2=good))
